Reference: US20220370545A1, “INTEGRIN RECEPTOR ALPHA V BETA 3 AND ITS LIGAND INVOLVED IN CHRONIC ITCH” (North Carolina State University, priority 2019, published 2022)
Ends that are not written are not given here.

Key:
[1] = system: Integrin αvβ3 on DRG Sensory Neurons; test: Fura-2 calcium imaging of periostin-induced calcium response in cultured DRG sensory neurons; type: cell-based, mouse
Procedure: DRGs were isolated from mice and dissociated in 1 mL of media containing 2.5 U/mL of dispase (Fisher Scientific, Hampton, New Hampshire, United States of America) and 2.5 mg/mL of collagenase (Fisher Scientific, Hampton, New Hampshire, United States of America). After dissociation, the cells were washed with complete media (DMEM (HiMedia Laboratories, Mumbai, India) with 10% FBS (Atlanta Biologicals, Flowery Branch, Georgia, United States of America) and 1% PenStrep (VWR International, Radnor, Pa., United States of America)) and pelleted at 1000 rpm for 15 minutes. Approximately 30 μL of the cell suspension was plated on 18 mm round glass slides with a coating of laminin (Sigma Aldrich, St. Louis, Miss., United States of America) and poly-L-lysine (Sigma Aldrich, St. Louis, Miss., United States of America) and incubated for 1.5 hours. Afterwards, 1 mL of complete media was added, and the cells were incubated overnight. All incubation steps were done at 37° C. with 5% CO2.
(§1) Before imaging, cells were incubated in 350 μL of complete media containing 1 μM Fura-2 AM (Enzo Life Sciences, Farmingdale, New York, United States of America) for 30 min at 37° C. with 5% CO2. During imaging, the cells were perfused with a buffer containing the following: 135 mM sodium chloride, 3.2 mM potassium chloride, 2.5 mM magnesium chloride, 2.8 mM calcium chloride, 667 μM monobasic sodium phosphate, 14.2 mM sodium bicarbonate, and 10.9 mM D-glucose (all from VWR International, Radnor, Pennsylvania, United States of America) with a pH between 7.00 and 7.40. The buffer and the holding plate were kept at 37° C. while imaging. Imaging data was collected on a TE200 inverted microscope using NIS Elements software (Nikon, Melville, New York, United States of America). Cells were exposed to 340 nm and 380 nm wavelengths for 100 ms and the A340/A380 ratio was calculated. Traces were analyzed using Excel and responses greater than 10% of the baseline were counted. Each data point in the scatter plots represented one coverslip.
(§2) Calcium Imaging: Calcium imaging will be performed on the DRG neurons as previously described (Pitake et al., 2018). Briefly, DRG neurons will be incubated for longer than 30 min in DMEM containing 1 μM of a fluorescent indicator Fura-2 AM (Enzo Life Sciences, Inc., Farmingdale, N.Y., United States of America). The neurons will be perfused in a standard bath solution containing 140 mM NaCl, 5 mM KCl, 2 mM MgCl2, 2 mM CaCl2, 10 mM Hepes and 10 mM D-glucose at pH 7.4 adjusted with NaOH. A calcium-free bath solution will be prepared by omitting 2 mM CaCl2 from the standard bath solution […] adding 5 mM EGTA. Fura-2 fluorescence excited at 340 and 380 nm and emission will be monitored at 510 nm with a digital CCD camera (Andor Clara DR-4152, Andor Technology Ltd, Belfast, United Kingdom). Data will be obtained by every 100 ms using an imaging software (NIS-Elements AR 4.13.04, Nikon Corporation, Tokyo, Japan) and analyzed by Microsoft Excel (Microsoft Corporation, Redmond, Wash., United States of America). Values of calcium responses will be normalized by dividing measured values (F) with average values of initial 5 frames (F0) of each cell and described as F/F0. In this study, changes in each response to an application with F/F0>0.1 will be regarded as positive. Cells not responding to 100 mM KCl, which is applied at the end of each experiment, will be regarded as non-neuronal cells and excluded from analysis.
Periostin (10 ug/ml) will be used to evoke calcium influx. This response has been optimized. The peptide inhibitors will be tested on DRG neurons to measure calcium influx in response to periostin. Data on calcium imaging will be presented by presenting each mouse±SEM. The IC50 value of the inhibitor will also be determined
Additional inhibitors were studied using the calcium imaging method described in Example 3. Briefly, the Fura2-AM calcium imaging method was performed on live dorsal root ganglia (DRG) neurons (ex vivo). […]

TRPV1 receptor = target: T1, TRPV1 receptor (Mus musculus, UniProt Q704Y3); test: Capsaicin-induced calcium response in DRG neurons (specificity control); type: cell-based; settings: capsaicin 1 μM
T1 construct: endogenous in cells; host or cells: primary mouse dorsal root ganglion neurons
T1 sequence (Q704Y3 whole entry): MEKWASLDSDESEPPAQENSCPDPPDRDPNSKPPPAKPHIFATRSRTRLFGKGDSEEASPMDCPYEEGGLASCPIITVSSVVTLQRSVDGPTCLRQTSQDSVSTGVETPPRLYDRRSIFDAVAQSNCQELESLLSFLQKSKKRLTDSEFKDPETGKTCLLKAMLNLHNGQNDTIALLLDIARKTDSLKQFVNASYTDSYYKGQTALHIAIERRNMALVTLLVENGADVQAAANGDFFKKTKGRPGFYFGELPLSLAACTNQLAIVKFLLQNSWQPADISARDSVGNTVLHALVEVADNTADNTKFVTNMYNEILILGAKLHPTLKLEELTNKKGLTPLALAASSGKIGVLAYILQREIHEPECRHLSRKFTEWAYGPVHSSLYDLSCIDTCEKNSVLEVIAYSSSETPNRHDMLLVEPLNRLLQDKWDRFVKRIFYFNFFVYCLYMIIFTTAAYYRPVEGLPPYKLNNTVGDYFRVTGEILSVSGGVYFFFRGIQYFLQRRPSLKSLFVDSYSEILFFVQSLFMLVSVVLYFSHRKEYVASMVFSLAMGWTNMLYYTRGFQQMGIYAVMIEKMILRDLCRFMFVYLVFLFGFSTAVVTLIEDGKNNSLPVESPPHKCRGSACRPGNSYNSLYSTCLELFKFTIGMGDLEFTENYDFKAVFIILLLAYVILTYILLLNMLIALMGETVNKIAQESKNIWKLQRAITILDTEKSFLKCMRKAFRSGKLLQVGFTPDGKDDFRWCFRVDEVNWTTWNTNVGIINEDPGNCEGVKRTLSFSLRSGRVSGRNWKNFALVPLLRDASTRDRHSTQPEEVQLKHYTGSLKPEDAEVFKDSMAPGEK
Procedure: as §1, §2
Additional inhibitors were studied using the calcium imaging method described in Example 3. Briefly, the Fura2-AM calcium imaging method was performed on live dorsal root ganglia (DRG) neurons (ex vivo). The DRG neurons are pre-incubated with the inhibitors P11 (Catalog #4744, Tocris Bioscience, Bristol, United Kingdom) and LM609 (Catalog #MAB1876, Millipore Sigma, Burlington, Mass., United States of America) or vehicle for 10 minutes and further stimulated with periostin or capsaicin in the presence of inhibitors. For Echistatin (Catalog #3202/100U, R&D Biosystems, Minneapolis, Minn., United States of America), MK-0429, and SB273005 (Catalog #S75-40, Selleck Chemicals Llc, Houston, Tex., United States of America), the DRG neurons were perfused with a normal Locke buffer vehicle or modified Locke buffer as described below. The values were normalized with KCl ([…]) to identify neuronal responses in all the calcium response data below.

[2] = system: murine keratinocyte cell line (Balb/MK2); test: TSLP-induced periostin production in Balb/MK2 keratinocytes (ELISA); type: cell-based, mouse; settings: for TSLP-induced periostin release: pre-exposed 4 hrs to 10 μmol/l inhibitor, then TSLP 10 ng/ml for 24 h
Procedure: The murine keratinocyte cell line (Balb/MK2) was used in this study to determine the periostin production induced by TSLP. Cells were cultured in EMEM medium according to the previously described method (Fukuyama et al., 2018). Confluent cells were exposed to TSLP at 1 or 10 ng/ml in FBS-free medium for 24 hrs. Inhibitory effect of the JAK2 inhibitor, SD 1008 and the STAT3 inhibitor, niclosamide, on TSLP-induced periostin production was also quantified using the murine Balb/MK2 keratinocyte cell line. Confluent cells were pre-exposed for 4 hrs to SD 1008 (10 μmol/l) or niclosamide (10 μmol/l), before being exposed to the TSLP at 10 ng/ml for a further 24 h. After TSLP exposure, periostin levels in cell supernatant were determined by ELISA according to the manufacturer's instructions.

[3] = system: NC/Nga mice sensitized with Dermatophagoides farinae HDM; test: House dust mite (HDM) allergic itch model in NC/Nga mice; type: in vivo, mouse
Procedure: C57BL6 mice (Jackson Labs, Ellsworth, Maine, United States of America) were applied daily with MC903 (4 nmol) and vehicle (97% ethanol) after brief anesthesia. Skin thickness was measured using cutimeter as described (Fukuyama et al., 2015). Scratching behavior was video-monitored for 30 min on Day 1 and Day 7. On Day 7 skin was collected from vehicle and MC903 treated mice for the Western Blot (WB) as described below. NC/Nga mice (Charles River, Yokohama, Japan) were sensitized and challenged with house dust mite (HDM) allergen (Dermatophagoides farina, Greer, Lenoir, N.C., United States of Amercia) as described previously (Fukuyama et al., 2018). In short, for sensitization, 30 μl of HDM in mineral oil (10 mg/ml) was applied topically to the clipped back twice weekly supported by tape stripping until visible lesions had developed. After development of visible lesions mice were treated daily either with vehicle cream or betamethasone dipropionate (0.1% in lipoderm, n=8). […] Scratching behavior was video monitored for 60 min period immediately after HDM on day 42. For periostin measurement, mice were sacrificed for determination of periostin in skin on day 43. A portion of back skin tissue were snap-frozen in liquid nitrogen. Briefly, samples were homogenized under liquid nitrogen, and the homogenates were taken in 200 μL RPMI 1640 medium containing 1 mmol/L Pefabloc. The amount of periostin was determined using ELISA according to the manufacturer's instruction.

mouse cornea = test: Eye wipes assay (corneal application); type: in vivo; settings: wild-type mice, wiping measured for 1 minute
Procedure: All behavioral experiments were conducted during the light cycle at ambient temperature (23° C.). Behavioral assessment of scratching behavior was conducted as described previously (Mishra et al., 2011). Briefly, mice were injected intradermal into the nape of the neck with periostin (R&D), histamine, and chloroquine (all Millipore-Sigma) as previously described (Shimada and LaMotte, 2008). Compounds were diluted in PBS and the same was used as a vehicle. […] Additionally, cilengitide and periostin were combined together (mix) and injected i.d. into the dorsal neck of mouse. Scratching behavior was recorded for 30 minutes and data was presented in bouts per 30 minutes for mice. […] For eye wipes assay, periostin and capsaicin were dropped on mouse cornea and counted wipes for 1-minute. […] For dog's study, periostin (25 μg/25 μl) was injected in the dorsal neck (s.c.) and behavior was recorded and quantified for 30 minutes as “duration of pruritus manifestation” (DPM), as described earlier (Paps et al., 2016). […] When different raters separately scored a single tape, the ratings indicated high interrater reliability (coefficient of correlation, r>0.95). This method of itch readout in NHP has been used and accepted (Ko and Naughton, 2000). The behavior was recorded for 30 minutes duration and number of scratches quantified. […]

[4] = target: integrin αvβ3 on mouse dorsal root ganglia (DRG) sensory neurons (mouse) (UniProt P43406); test: cell-based or functional assay
Chain of integrin αvβ3 on mouse dorsal root ganglia (DRG) sensory neurons (mouse) (P43406 31-1044, chain 1 of 2): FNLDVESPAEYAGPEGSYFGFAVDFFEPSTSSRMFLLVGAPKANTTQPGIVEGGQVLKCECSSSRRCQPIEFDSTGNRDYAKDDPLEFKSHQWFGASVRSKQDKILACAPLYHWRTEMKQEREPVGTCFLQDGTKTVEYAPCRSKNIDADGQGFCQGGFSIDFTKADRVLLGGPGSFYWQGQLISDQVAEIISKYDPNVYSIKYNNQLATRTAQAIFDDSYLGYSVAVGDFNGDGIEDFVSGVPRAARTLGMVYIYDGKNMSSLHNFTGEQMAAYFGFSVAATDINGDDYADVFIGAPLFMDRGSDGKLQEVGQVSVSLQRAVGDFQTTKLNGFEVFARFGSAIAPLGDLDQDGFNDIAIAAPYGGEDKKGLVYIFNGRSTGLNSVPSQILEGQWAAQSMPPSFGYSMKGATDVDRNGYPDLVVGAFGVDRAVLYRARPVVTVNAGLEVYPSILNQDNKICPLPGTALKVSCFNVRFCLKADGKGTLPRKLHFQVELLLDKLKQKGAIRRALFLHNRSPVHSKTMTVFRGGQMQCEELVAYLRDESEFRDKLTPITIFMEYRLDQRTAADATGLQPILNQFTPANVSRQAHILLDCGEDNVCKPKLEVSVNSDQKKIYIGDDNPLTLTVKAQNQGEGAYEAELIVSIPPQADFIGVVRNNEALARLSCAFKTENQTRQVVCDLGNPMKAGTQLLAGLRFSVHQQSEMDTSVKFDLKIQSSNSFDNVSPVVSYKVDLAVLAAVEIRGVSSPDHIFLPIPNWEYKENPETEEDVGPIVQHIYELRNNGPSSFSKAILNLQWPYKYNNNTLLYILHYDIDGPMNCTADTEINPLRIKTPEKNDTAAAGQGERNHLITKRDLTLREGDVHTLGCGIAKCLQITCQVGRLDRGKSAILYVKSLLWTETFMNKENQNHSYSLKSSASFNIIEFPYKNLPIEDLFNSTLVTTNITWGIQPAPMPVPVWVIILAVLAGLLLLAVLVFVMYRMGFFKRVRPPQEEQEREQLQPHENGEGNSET
Chain of integrin αvβ3 on mouse dorsal root ganglia (DRG) sensory neurons (mouse) (O54890 26-787, chain 2 of 2, further chain): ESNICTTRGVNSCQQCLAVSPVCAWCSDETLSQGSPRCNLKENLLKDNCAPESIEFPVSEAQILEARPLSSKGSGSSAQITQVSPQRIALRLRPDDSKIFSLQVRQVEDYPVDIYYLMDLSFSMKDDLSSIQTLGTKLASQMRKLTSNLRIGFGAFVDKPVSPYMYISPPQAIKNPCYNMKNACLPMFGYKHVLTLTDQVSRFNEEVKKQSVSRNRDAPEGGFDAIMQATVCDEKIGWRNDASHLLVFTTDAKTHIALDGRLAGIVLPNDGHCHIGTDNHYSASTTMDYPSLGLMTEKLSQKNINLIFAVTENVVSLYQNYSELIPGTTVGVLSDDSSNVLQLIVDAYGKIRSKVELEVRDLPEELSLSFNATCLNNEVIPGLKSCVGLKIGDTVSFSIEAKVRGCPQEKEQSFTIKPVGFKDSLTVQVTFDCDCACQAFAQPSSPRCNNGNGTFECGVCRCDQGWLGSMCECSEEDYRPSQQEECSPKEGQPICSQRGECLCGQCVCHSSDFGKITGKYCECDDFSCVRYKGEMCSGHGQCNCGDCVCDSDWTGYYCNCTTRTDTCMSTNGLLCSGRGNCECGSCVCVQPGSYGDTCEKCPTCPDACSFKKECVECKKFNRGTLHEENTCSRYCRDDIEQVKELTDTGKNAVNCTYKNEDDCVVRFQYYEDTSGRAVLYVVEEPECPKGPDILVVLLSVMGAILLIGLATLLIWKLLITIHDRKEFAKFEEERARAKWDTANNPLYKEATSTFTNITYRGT

## COc1ccc([C@H](CC(=O)O)N2CCN(CCCc3ccc4c(n3)NCCC4)C2=O)cn1 [MK-0429, (S)-3-(6-methoxypyridin-3-yl)-3-(2-oxo-3-(3-(5,6,7,8-tetrahydro-1,8-naphthyridin-2-yl)propyl)-imidazol-idin-1-yl)propanoic acid]
[1]; higher concentration of MK-0429 (160 nM)
  periostin response (calcium influx): significant reduction
TRPV1 receptor; MK-0429 80 nM or 160 nM
  capsaicin response: no changes

## CNc1cccc(CCOc2ccc3c(c2)CN(CC(F)(F)F)C(=O)[C@H](CC(=O)O)C3)n1 [SB273005, (S)-2-(8-(2-(6-(methylamino)pyridin-2-yl)ethoxy)-3-oxo-2-(2,2,2-trifluoroethyl)-2,3,4,5-tetrahydro-1H-benzo-[c]azepin-4-yl)acetic acid]
[1]; SB273005 11 nM, trend, not statistically significant
  reduction of periostin-induced calcium response: about 40%
[1]; SB273005 higher concentration (20 nM)
  periostin-induced calcium response: significant reduction
TRPV1 receptor; SB273005 11 nM or 20 nM
  capsaicin response: No changes

## COC(=O)[C@@H]1[C@H](C(=O)OC)[C@H]2C=CC(=O)[C@@H]1N2Cc1ccccc1 [SD 1008]
[2]
  TSLP-induced periostin release: blocked

## COc1ccc2c(c1)CC[C@@H]1[C@@H]2CC[C@]2(C)[C@@H](NCCCCCCN3C(=O)C=CC3=O)CC[C@@H]12 [U73122]
[1]; phospholipase C inhibitor U73122 1 μM
  periostin-induced calcium response: not affected

## CCC(=O)OCC(=O)[C@@]1(OC(=O)CC)[C@@H](C)C[C@H]2[C@@H]3CCC4=CC(=O)C=C[C@]4(C)[C@@]3(F)[C@@H](O)C[C@@]21C [betamethasone dipropionate]
[3]; betamethasone dipropionate 0.1% in lipoderm topically, day 42
  HDM-induced scratching: reduced
[3]; betamethasone dipropionate 0.1% in lipoderm topically, skin ELISA day 43
  periostin skin levels: reduced significantly
[3]; daily betamethasone dipropionate 0.1%, application reduced to every other day on day 26
  body weight: significant weight loss

## COc1cc(CNC(=O)CCCC/C=C/C(C)C)ccc1O [capsaicin]
Mouse cornea
  eye-wiping response to ocular application: robust eye-wipe behavior

## O=C1OC2(c3ccccc31)c1ccc(O)c(O)c1Oc1c2ccc(O)c1O [gallein]
[1]; Gβγ blocker gallein 100 μM
  periostin-induced calcium response: not affected

## O=C(Nc1ccc([N+](=O)[O-])cc1Cl)c1cc(Cl)ccc1O [niclosamide]
[2]
  TSLP-induced periostin release: blocked

## Echistatin
[1]; Echistatin 4 nM
  reduction in periostin-induced calcium influx: around 80%
TRPV1 receptor; in presence of Echistatin
  capsaicin response: remains unaffected

## His-Ser-Asp-Val-His-Lys-NH2 (HSDVHK-NH2) [P11]
[1]; P11 50 μg/ml, 10 minutes pre-incubation
  reduction in periostin-induced calcium influx: about 78%
TRPV1 receptor; P11 pre-treatment
  capsaicin response: no change

## Recombinant Mouse Periostin (from UniProt Q62009 24-811) (ligand)
[4]
  inward current in SST-positive DRG neurons in response to periostin (10 µg/ml), whole-cell patch clamp: 58.4 pA

B1: TSLP: Th2 cytokine thymic stromal lymphopoietin, recombinant mouse (protein, UniProt Q9JIE6 20-140, looked up)
Thymic stromal lymphopoietin: YNFSNCNFTSITKIYCNIIFHDLTGDLKGAKFEQIEDCESKPACLLKIEYYTLNPIPGCPSLPDKTFARRTREALNDHCPGYPETERNDGTQEMAQEVQNICLNQTSQILRLWYSFMQSPE
[2]; TSLP 1 and 10 ng/ml, 24 hrs
  release of periostin from keratinocytes: induced the release of periostin
